# Like-named read-outs stand apart in the source and are kept apart here.
# Experiments:
# [1] = system: 60 different human tumor cell lines; conditions: five dose; for CC50: read-out: LC50
# [2] = system: gliosarcoma (SF-539); experiment: NCI 60 five dose screen; conditions: SF-539 (CNS Cancer), five dose
# [3] = system: RPMI-8226; experiment: NCI 60 five dose screen
# [4] = system: SR; experiment: NCI 60 five dose screen
# [5] = RPMI-8226 (Leukemia), five dose
substance,measurement,setting,value
"(1S,2R,13R,14S,18S)-7-(2,4-dimethylanilino)-2,18-dimethyl-6-thia-8-azapentacyclo[11.7.0.02,10.05,9.014,18]icosa-5(9),7,10-trien-17-one [IIa.14]",GI50,[1]; SK-MEL-5 (Melanoma),1.86 µM
same,TGI,[1]; SK-MEL-5 (Melanoma),3.73E−6
same,GI50,[1]; SK-MEL-28 (Melanoma),2.31 µM
same,TGI,[1]; SK-MEL-28 (Melanoma),6.08E−6
same,GI50,[1]; SK-OV-3 (Ovarian Cancer),9.85 µM
same,TGI,[1]; SK-OV-3 (Ovarian Cancer),>1.00E−4
same,GI50,[1]; SN12C (Renal Cancer),2.17 µM
same,TGI,[1]; SN12C (Renal Cancer),5.06E−6
same,GI50,[1]; SNB-19 (CNS Cancer),2.12 µM
same,TGI,[1]; SNB-19 (CNS Cancer),5.09E−6
same,GI50,[1]; SNB-75 (CNS Cancer),2.19 µM
same,TGI,[1]; SNB-75 (CNS Cancer),9.75E−5
same,GI50,[1]; SW-620 (Colon Cancer),2.7 µM
same,GI50,[1]; T-47D (Breast Cancer),2.89 µM
same,TGI,[1]; T-47D (Breast Cancer),>1.00E−4
same,GI50,[1]; TK-10 (Renal Cancer),2.46 µM
same,TGI,[1]; TK-10 (Renal Cancer),6.70E−6
same,TGI,[1]; U251 (CNS Cancer),3.21E−6
same,GI50,[1]; UACC-62 (Melanoma),1.72 µM
same,TGI,[1]; UACC-62 (Melanoma),3.94E−6
same,GI50,[1]; UACC-257 (Melanoma),3.7 µM
same,TGI,[1]; UACC-257 (Melanoma),>1.00E−4
same,GI50,[1]; UO-31 (Renal Cancer),1.34 µM
same,TGI,[1]; UO-31 (Renal Cancer),2.86E−6
same,CC50,[1]; 786-0 (Renal Cancer),5.84 µM
same,CC50,[1]; A498 (Renal Cancer),> 100 µM
same,CC50,[1]; A549/ATCC (Non-small Cell Lung Cancer),> 100 µM
same,CC50,[1]; BT-549 (Breast Cancer),5.8 µM
same,CC50,[1]; CAKI-1 (Renal Cancer),> 100 µM
same,CC50,[1]; CCRF-CEM (Leukemia),> 100 µM
same,CC50,[1]; COLO 205 (Colon Cancer),> 100 µM
same,CC50,[1]; DU-145 (Prostate Cancer),> 100 µM
same,CC50,[1]; EKVX (Non-small Cell Lung Cancer),> 100 µM
same,CC50,[1]; HCT-15 (Colon Cancer),> 100 µM
same,CC50,[1]; HCT-116 (Colon Cancer),5.46 µM
same,CC50,[1]; HL-60(TB) (Leukemia),> 100 µM
same,CC50,[1]; HOP-62 (Non-small Cell Lung Cancer),> 100 µM
same,CC50,[1]; HOP-92 (Non-small Cell Lung Cancer),8.68 µM
same,CC50,[1]; HT29 (Colon Cancer),> 100 µM
same,CC50,[1]; IGROV1 (Ovarian Cancer),> 100 µM
same,CC50,[1]; K-562 (Leukemia),> 100 µM
same,CC50,[1]; KM12 (Colon Cancer),≥ 100 µM
same,CC50,[1]; LOX IMVI (Melanoma),5.96 µM
same,CC50,[1]; MALME-3M (Melanoma),> 100 µM
same,CC50,[1]; MCF7 (Breast Cancer),> 100 µM
same,CC50,[1]; MDA-MB-231/ATCC (Breast Cancer),> 100 µM
same,CC50,[1]; MDA-MB-435 (Melanoma),> 100 µM
same,CC50,[1]; MDA-MB-468 (Breast Cancer),8.01 µM
same,CC50,[1]; MOLT-4 (Leukemia),> 100 µM
same,CC50,[1]; NCI-H23 (Non-small Cell Lung Cancer),> 100 µM
same,CC50,[1]; NCI-H226 (Non-small Cell Lung Cancer),> 100 µM
same,CC50,[1]; NCI-H460 (Non-small Cell Lung Cancer),> 100 µM
same,CC50,[1]; NCI-H522 (Non-small Cell Lung Cancer),6.43 µM
same,CC50,[1]; NCI/ADR-RES (Ovarian Cancer),> 100 µM
same,CC50,[1]; OVCAR-3 (Ovarian Cancer),38.2 µM
same,CC50,[1]; OVCAR-4 (Ovarian Cancer),> 100 µM
same,CC50,[1]; OVCAR-5 (Ovarian Cancer),> 100 µM
same,CC50,[1]; OVCAR-8 (Ovarian Cancer),> 100 µM
same,CC50,[1]; RXF 393 (Renal Cancer),6.01 µM
same,CC50,[1]; SF-268 (CNS Cancer),> 100 µM
same,CC50,[1]; SK-MEL-2 (Melanoma),22.7 µM
same,CC50,[1]; SK-MEL-5 (Melanoma),7.47 µM
same,CC50,[1]; SK-MEL-28 (Melanoma),> 100 µM
same,CC50,[1]; SK-OV-3 (Ovarian Cancer),> 100 µM
same,CC50,[1]; SN12C (Renal Cancer),> 100 µM
same,CC50,[1]; SNB-19 (CNS Cancer),> 100 µM
same,CC50,[1]; SNB-75 (CNS Cancer),> 100 µM
same,CC50,[1]; SW-620 (Colon Cancer),> 100 µM
same,CC50,[1]; T-47D (Breast Cancer),> 100 µM
same,CC50,[1]; TK-10 (Renal Cancer),> 100 µM
same,CC50,[1]; U251 (CNS Cancer),6.1 µM
same,CC50,[1]; UACC-62 (Melanoma),9.02 µM
same,CC50,[1]; UACC-257 (Melanoma),> 100 µM
same,CC50,[1]; UO-31 (Renal Cancer),6.12 µM
same,GI50,[2],1.62 µM
same,TGI,[2],3.08E−6
same,CC50,[2]; read-out: LC50,5.86 µM
same,GI50,[3]; [5],2.43 µM
same,TGI,[3]; [5],6.25E−6
same,50% growth inhibition (GI50),[3]; leukemia cell line RPMI-8226,submicromolar
same,CC50,"[3]; read-out: LC50, RPMI-8226 (Leukemia), five dose",> 100 µM
same,GI50,"[4]; SR (Leukemia), five dose",2.32 µM
same,TGI,"[4]; SR (Leukemia), five dose",>1.00E−4
same,50% growth inhibition (GI50),[4]; leukemia cell line SR,submicromolar
same,CC50,"[4]; read-out: LC50, SR (Leukemia), five dose",> 100 µM
